Laboratory results: patent US6706663B2, “Herbicidal 3-heterocyclic substituted benzisothiazole and benzisoxazole compounds” (Wyeth, priority 2000, dated 2004)

What was measured:
[1] = test system: CASOB (Cassia obtusifolia); test: Preemergence herbicidal evaluation; assay type: in vivo, L.; settings: preemergence, rated 4-5 weeks after treatment
How it was run: (§1)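 Each species was sown separately in potting soil over roughly one inch of soil, and the surface sprayed with compound dissolved in aqueous acetone. Assessment used a 0–9 visual scale against a control after four to five weeks.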

[2] = test system: AMBEL (Ambrosia artemisifolia); test: Preemergence herbicidal evaluation; assay type: in vivo, L.; settings: preemergence, rated 4-5 weeks after treatment
How it was run: as §1

[3] = test system: CHEAL (Chenopodium album); test: Preemergence herbicidal evaluation; assay type: in vivo, L.; settings: preemergence, rated 4-5 weeks after treatment
How it was run: as §1

SETVI (Setaria viridis) [4] = test: Postemergence herbicidal evaluation; assay type: in vivo, (L.) Beau
How it was run: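 Ratings use a 0-9 visual scale covering stand, vigor, malformation, size, chlorosis and appearance versus a control, scored 4-5 weeks post-spray. Roughly two-week-old seedlings received about 0.0040-1.000 kg/ha active, applied in 50/50 acetone/water with 0.5% TWEEN 20. Multiple tests per compound were averaged.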

[5] = test system: SAGPY (Sagittaria pygmaea); test: Flooded paddy, preemergence weed control; assay type: in vivo, L.; settings: rated 3-4 weeks after treatment, 0-9 rating scale
How it was run: (§2)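 Preemergence, flooded: propagules planted at 0.5 cm depth in silt loam, water level maintained at 1.5 to 3 cm over soil, containers kept on greenhouse benches. Activity scored 0-9 by eye relative to a control plant.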

[6] = test system: ABUTH (Abutilon theophrasti); test: Postemergence herbicidal evaluation; assay type: in vivo, Medic.
How it was run: (§3)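 Seedlings grown for about two weeks were sprayed postemergence and then kept under standard greenhouse care. Injury was rated visually 4–5 weeks after treatment on a 0–9 scale against untreated controls, and ratings from repeat tests were averaged.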

[7] = test system: TRZAWR (Wheat, Winter, cv Riband); test: Postemergence herbicidal evaluation; assay type: in vivo, Triticum aestivum
How it was run: as §3

GALAP (Galium aparine) [8] = test: Postemergence herbicidal evaluation; assay type: in vivo
How it was run: as §3

[9] = test system: IPOHE (Ipomoea hederacea); test: Postemergence herbicidal evaluation; assay type: in vivo, (L.) Jacq.
How it was run: as §3

[10] = test system: CYPSE (Cyperus serotinus); test: Flooded paddy, preemergence weed control; assay type: in vivo, Rottb.; settings: rated 3-4 weeks after treatment, 0-9 rating scale
How it was run: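 Herbicidal effect was scored visually on a 0–9 scale against an untreated control 3–4 weeks after treatment. Compounds were applied preemergence as 50/50 v/v aqueous/acetone mixtures into flood water (1.5–3 cm deep over silt loam), at roughly 0.0080 to 0.1250 kg/ha active ingredient.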

SETVI (Setaria viridis) [11] = test: Preemergence herbicidal evaluation; assay type: in vivo, (L.) Beau; settings: preemergence, rated 4-5 weeks after treatment
How it was run: as §1

[12] = test system: ECHCG (Echinochloa crus-galli); test: Preemergence herbicidal evaluation; assay type: in vivo, (L.) Beau; settings: preemergence, rated 4-5 weeks after treatment
How it was run: as §1

[13] = test system: CASOB (Cassia obtusifolia); test: Postemergence herbicidal evaluation; assay type: in vivo, L.
How it was run: as §3

[14] = test system: AMBEL (Ambrosia artemisifolia); test: Postemergence herbicidal evaluation; assay type: in vivo, L.
How it was run: as §3

[15] = test system: CHEAL (Chenopodium album); test: Postemergence herbicidal evaluation; assay type: in vivo, L.
How it was run: as §3

CYPIR (Cyperus iria) = test: Flooded paddy, preemergence weed control; assay type: in vivo; settings: rated 3-4 weeks after treatment, 0-9 rating scale
How it was run: as §2

[16] = test system: MOOVA (Monochoria vaginalis); test: Flooded paddy, preemergence weed control; assay type: in vivo, Presl.; settings: rated 3-4 weeks after treatment, 0-9 rating scale
How it was run: as §2

ORYSAT (Rice, Tebonnet) [17] = test: Preemergence herbicidal evaluation; assay type: in vivo, Oryza sativa, (L.) Tebonnet; settings: preemergence, rated 4-5 weeks after treatment
ORYSAT (Rice, Tebonnet) [18] = test: Postemergence herbicidal evaluation; assay type: in vivo, Oryza sativa, (L.) Tebonnet
How it was run: as §3

GALAP (Galium aparine) [19] = test: Preemergence herbicidal evaluation; assay type: in vivo; settings: preemergence, rated 4-5 weeks after treatment
How it was run: as §1

## Cc1ccsc1-c1nsc2ccc(-n3c(=O)cc(C(F)(F)F)n(C)c3=O)cc12 [Compound 4, 1-methyl-3-[3-(3-methyl-2-thienyl)-1,2-benzisothiazol-5-yl]-6-(trifluoromethyl)uracil]
[1]; Rate 0.0620 kg/ha
  CASOB preemergence herbicidal rating: 1.3
[1]; Rate 0.1250 kg/ha
  CASOB preemergence herbicidal rating: 3.4
[1]; Rate 0.2500 kg/ha
  CASOB preemergence herbicidal rating: 5.0
[2]; Rate 0.0620 kg/ha
  AMBEL preemergence herbicidal rating: 5.9
[2]; Rate 0.1250 kg/ha
  AMBEL preemergence herbicidal rating: 7.3
[2]; Rate 0.2500 kg/ha
  AMBEL preemergence herbicidal rating: 8.9
[3]; Rate 0.0620 kg/ha
  CHEAL preemergence herbicidal rating: 9.0
[3]; Rate 0.1250 kg/ha
  CHEAL preemergence herbicidal rating: 9.0
[3]; Rate 0.2500 kg/ha
  CHEAL preemergence herbicidal rating: 8.0
SETVI (Setaria viridis) [4]; rate 0.0320 kg/ha
  Postemergence herbicidal rating, SETVI: 5.0
SETVI (Setaria viridis) [4]; rate 0.0620 kg/ha
  Postemergence herbicidal rating, SETVI: 6.3
SETVI (Setaria viridis) [4]; rate 0.1250 kg/ha
  Postemergence herbicidal rating, SETVI: 7.3
[5]; rate 0.0080 kg/ha
  herbicidal rating, SAGPY: 0.0
[5]; rate 0.0320 kg/ha
  herbicidal rating, SAGPY: 2.0
[5]; rate 0.1250 kg/ha
  herbicidal rating, SAGPY: 5.5
[6]; rate 0.0320 kg/ha
  Postemergence herbicidal rating, ABUTH: 9.0
[6]; rate 0.0620 kg/ha
  Postemergence herbicidal rating, ABUTH: 9.0
[6]; rate 0.1250 kg/ha
  Postemergence herbicidal rating, ABUTH: 9.0
[7]; rate 0.0320 kg/ha
  Postemergence herbicidal rating, TRZAWR: 3.7
[7]; rate 0.0620 kg/ha
  Postemergence herbicidal rating, TRZAWR: 4.2
[7]; rate 0.1250 kg/ha
  Postemergence herbicidal rating, TRZAWR: 5.2
GALAP (Galium aparine) [8]; rate 0.0320 kg/ha
  Postemergence herbicidal rating, GALAP: 3.3
GALAP (Galium aparine) [8]; rate 0.0620 kg/ha
  Postemergence herbicidal rating, GALAP: 6.0
GALAP (Galium aparine) [8]; rate 0.1250 kg/ha
  Postemergence herbicidal rating, GALAP: 8.3
[9]; rate 0.0320 kg/ha
  Postemergence herbicidal rating, IPOHE: 8.6
[9]; rate 0.0620 kg/ha
  Postemergence herbicidal rating, IPOHE: 9.0
[9]; rate 0.1250 kg/ha
  Postemergence herbicidal rating, IPOHE: 9.0
[10]; rate 0.0080 kg/ha
  herbicidal rating, CYPSE: 0.0
[10]; rate 0.0320 kg/ha
  herbicidal rating, CYPSE: 6.5
[10]; rate 0.1250 kg/ha
  herbicidal rating, CYPSE: 9.0
SETVI (Setaria viridis) [11]; Rate 0.0620 kg/ha
  SETVI preemergence herbicidal rating: 8.8
SETVI (Setaria viridis) [11]; Rate 0.1250 kg/ha
  SETVI preemergence herbicidal rating: 9.0
SETVI (Setaria viridis) [11]; Rate 0.2500 kg/ha
  SETVI preemergence herbicidal rating: 9.0
[12]; Rate 0.0620 kg/ha
  ECHCG preemergence herbicidal rating: 7.0
[12]; Rate 0.1250 kg/ha
  ECHCG preemergence herbicidal rating: 8.3
[12]; Rate 0.2500 kg/ha
  ECHCG preemergence herbicidal rating: 9.0
[13]; rate 0.0320 kg/ha
  Postemergence herbicidal rating, CASOB: 5.2
[13]; rate 0.0620 kg/ha
  Postemergence herbicidal rating, CASOB: 6.2
[13]; rate 0.1250 kg/ha
  Postemergence herbicidal rating, CASOB: 9.0
[14]; rate 0.0320 kg/ha
  Postemergence herbicidal rating, AMBEL: 8.1
[14]; rate 0.0620 kg/ha
  Postemergence herbicidal rating, AMBEL: 8.3
[14]; rate 0.1250 kg/ha
  Postemergence herbicidal rating, AMBEL: 9.0
[15]; rate 0.0320 kg/ha
  Postemergence herbicidal rating, CHEAL: 9.0
[15]; rate 0.0620 kg/ha
  Postemergence herbicidal rating, CHEAL: 9.0
[15]; rate 0.1250 kg/ha
  Postemergence herbicidal rating, CHEAL: 9.0
CYPIR (Cyperus iria); rate 0.0080 kg/ha
  herbicidal rating, CYPIR: 2.0
CYPIR (Cyperus iria); rate 0.0320 kg/ha
  herbicidal rating, CYPIR: 9.0
CYPIR (Cyperus iria); rate 0.1250 kg/ha
  herbicidal rating, CYPIR: 9.0
[16]; rate 0.0080 kg/ha
  herbicidal rating, MOOVA: 9.0
[16]; rate 0.0320 kg/ha
  herbicidal rating, MOOVA: 9.0
[16]; rate 0.1250 kg/ha
  herbicidal rating, MOOVA: 9.0
ORYSAT (Rice, Tebonnet) [17]; Rate 0.0620 kg/ha
  ORYSAT preemergence herbicidal rating: 1.4
ORYSAT (Rice, Tebonnet) [17]; Rate 0.1250 kg/ha
  ORYSAT preemergence herbicidal rating: 1.9
ORYSAT (Rice, Tebonnet) [17]; Rate 0.2500 kg/ha
  ORYSAT preemergence herbicidal rating: 2.8
ORYSAT (Rice, Tebonnet) [18]; rate 0.0320 kg/ha
  Postemergence herbicidal rating, ORYSAT: 2.8
ORYSAT (Rice, Tebonnet) [18]; rate 0.0620 kg/ha
  Postemergence herbicidal rating, ORYSAT: 3.8
ORYSAT (Rice, Tebonnet) [18]; rate 0.1250 kg/ha
  Postemergence herbicidal rating, ORYSAT: 4.5
GALAP (Galium aparine) [19]; Rate 0.0620 kg/ha
  GALAP preemergence herbicidal rating: 5.0
GALAP (Galium aparine) [19]; Rate 0.1250 kg/ha
  GALAP preemergence herbicidal rating: 8.0
GALAP (Galium aparine) [19]; Rate 0.2500 kg/ha
  GALAP preemergence herbicidal rating: 9.0
